Drawing on the METLIN SMRT retention time set (Domingo-Almenara et al. 2019), this text covers RP-LC retention time for 79 compounds.

The nature of this data set: gradient 5% acetonitrile 3 min, to 50% in 2 min, to 85% in 15 min, held 3 min, 100 µL/min. As to conditions: column: Zorbax Extend-C18 2.1 x 50 mm; eluents: water / acetonitrile, 0.1% formic acid. The method in brief: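 The system's dead and dwell volumes were 40 μL and 900 μL, with a Zorbax Extend-C18 column (2.1 × 50 mm, 1.8 μm) run at 100 μL/min in water and acetonitrile containing 0.1% formic acid each. Pure standards were analyzed in mixtures of ~100 molecules by HPLC–quadrupole time-of-flight mass spectrometry in positive and negative ionization mode. Retention time was assigned from computationally picked, manually inspected adduct peaks.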
The compound `CC(=O)N1CCCN(C2=NS(=O)(=O)C(c3ccc(C)c(C)c3)=C2C)CC1` displayed an RP-LC retention time of 630 s.
`CCOC(=O)c1c(S(=O)(=O)N2CCC(C(=O)Nc3ccc(C)c(F)c3)CC2)c(C)n(CC)c1C`: the RP-LC retention time was 984 s.
Compound `Cc1ccc(C)c(-c2csc(NC(=O)c3ccc(C)o3)n2)c1` showed an RP-LC retention time of 1100 s.
In turn, `CCCN1C(=O)c2c(C(=O)NCc3ccc(F)cc3)ncn2CC1(C)C(=O)NCc1ccc(F)cc1` (centres undefined) displayed an RP-LC retention time of 778 s.
In turn, `Cc1ccccc1-c1nnc(SCC(=O)N2CCC(C)CC2)o1` had an RP-LC retention time of 1020 s.
As for `O=C(c1nnc(-c2ccc(S(=O)(=O)N3CCCC3)cc2)o1)N1CCN(c2ccccn2)CC1`, the RP-LC retention time is 650 s.
With `CCC1CCCCN1C(=O)c1cnc2nc(C)ccc2c1Nc1ccc(CC(=O)O)cc1` (centres undefined) the figure was 598 s; with `O=C(NC1CC1)[C@@H]1C[C@H](Oc2ccccc2)CN1C(=O)c1cc2ccccc2[nH]1`, 847 s.
As for `COc1ccc(N2CCCn3c2nc2c3c(=O)n(C)c(=O)n2C)cc1`, the RP-LC retention time is 568 s.
For `COCCn1cc2c3c(cccc31)CN(C(=O)Nc1ccc(OC)cc1OC)CC2` the value was 883 s.
For `Cc1ccsc1C(=O)N1CCN(c2cc(-c3ccc(Cl)cc3)[nH]n2)CC1`, the RP-LC retention time was 749 s.
Regarding `O=C(NCC1OCCc2ccccc21)C(=O)Nc1ccc(Br)cc1` (centres undefined), the RP-LC retention time was 1070 s.
In turn, `C[C@@H]1COCCN1c1cc(C2(S(C)(=O)=O)CC2)nc(-c2cccc3[nH]ccc23)n1` had an RP-LC retention time of 775 s.
With `O=C1CCN(C(=O)C2CCN(C(=O)c3cccs3)CC2)CCCCCCN1` the figure was 639 s; with `COc1cccc(NC(=O)N2CCN(c3cnn4c(C)nnc4c3)CC2)c1`, 616 s.
`Cc1ccc(Cn2cc(-c3ccncc3)cc2C(=O)N2CCN(CC(C)C)CC2)cc1`: the RP-LC retention time was 582 s.
As for `CC(C)c1nc2ccc(C(=O)NCCCN3CCN(C4CCCCC4)CC3)cc2o1`, the RP-LC retention time came to 588 s.
On to `O=C(NCC1CCCO1)c1ccc(Nc2c(-c3ccccc3)nc3cnccn23)cc1` (centres undefined), for which the RP-LC retention time was 1140 s.
With `O=C(C1CCCO1)N1CCC(OCc2nc(C3CC3)no2)CC1` (centres undefined) the figure was 635 s; with `O=C(CCCn1nc(-c2ccccc2)c2cc(Cl)ccc21)N1CCN(c2ccccn2)CC1`, 764 s; with `CCN1c2ccc(F)cc2C(=O)NC12CCN(C(=O)c1ccc(OC)cc1)CC2`, 773 s.
As to `Cc1c(S(=O)(=O)N2CCCC(C)C2)c(C)n(C)c1C(=O)Nc1ccccc1F` (centres undefined), the RP-LC retention time was found to be 895 s.
With `Cc1ccc(NC(=O)Nc2ccc3nnc(C4CCC4)n3c2)cc1Cl` the figure was 870 s; with `CCOCc1nc(C2CCCN2S(=O)(=O)c2c(C)nn(C)c2C)no1` (centres undefined), 691 s.
`Fc1ccc(-c2nc3ccccc3[nH]2)cc1` came in with an RP-LC retention time of 557 s.
Turning to `CCOc1ccccc1N1CCN(S(=O)(=O)c2nn(C)cc2C(=O)NCCC(C)C)CC1`, the RP-LC retention time was determined as 1080 s.
In turn, `CCc1noc([C@@H]2CC(F)(F)CN2S(=O)(=O)c2cccnc2)n1` showed an RP-LC retention time of 773 s.
Consider `CN(Cc1ccco1)C(=O)c1ccc2ncnc(N3CCCCC3)c2c1`, for which the RP-LC retention time is 632 s.
`O=C(C1CC1)N1CCC(c2noc(-c3ccccn3)n2)C1` (centres undefined) came in with an RP-LC retention time of 636 s.
Turning to `CC(C)N1CCn2cc(S(=O)(=O)Nc3ccccc3F)cc2C1=O`, the RP-LC retention time came to 730 s.
For `O=C([C@H]1C[C@@H](F)CN1S(=O)(=O)c1ccc(Cl)cc1)N1CCOCC1`, the RP-LC retention time was 711 s.
The compound `O=S(=O)(c1ccc(F)cc1F)N1CCC(CN2CCCCCC2)CC1` yielded an RP-LC retention time of 648 s.
With `O=c1ccc(-c2nc(-c3cccc(Cl)c3)no2)cn1Cc1ccncc1` the figure was 722 s; with `O=C(NCc1ccc(F)cc1F)C1CCc2nc(N3CCOCC3)ncc2C1` (centres undefined), 682 s; with `COCc1nc(-c2ccc(OC3CN(Cc4ccsc4)C3)cc2)no1`, 656 s.
With `Cc1cccc2c(=O)n(C3CCN(C(=O)Nc4cccc(C(F)(F)F)c4)CC3)cnc12`, the RP-LC retention time came out at 952 s.
As for `CCOc1cc(=O)n2c(c1C(=O)NCCOC)CCCCC2`, the RP-LC retention time worked out at 600 s.
With `O=C(Cc1nnc2c(-c3nc(C4CC4)no3)cccn12)N1CCc2ccccc2C1` the figure was 722 s; with `O=C(Cn1cnc2nc(N3CCC(C(=O)NC4CC4)CC3)sc2c1=O)Nc1ccccc1F`, 885 s; with `CCCCOc1ccc(NC(=O)c2cc(=O)c3cc(C)cc(C)c3o2)c2cccnc12`, 838 s.
Turning to `CCCNC(=O)C1CCN(c2ccc(SCC(=O)Nc3ccc(F)c(Cl)c3)nn2)CC1`, the RP-LC retention time was determined as 692 s.
For the compound `Cc1nnc(C2CC3(CCN(CC(C)C)CC3)CN2Cc2ccccc2)o1` (centres undefined), the RP-LC retention time worked out at 566 s.
For `CCCN1CCN(C(=O)Cn2ccc3ccc(-c4nnc(C)o4)cc32)CC1`, the RP-LC retention time was 589 s.
For the compound `O=C(c1cnn2c(-c3ccc4c(c3)OCO4)ccnc12)N1CCN(c2ccccn2)CC1`, the RP-LC retention time turned out to be 598 s.
The compound `CCCS(=O)(=O)c1nc2ccc(NS(=O)(=O)c3cc(C)c(C)cc3C)cc2s1` yielded an RP-LC retention time of 1040 s.
With `O=S(=O)(c1ccccc1)N1CCC(c2noc(-c3cccc(F)c3)n2)CC1`, the RP-LC retention time turned out to be 1110 s.
Compound `COc1ccc(-c2noc(C3CCCN3C(=O)c3cc(F)ccc3F)n2)cc1` (centres undefined) returned an RP-LC retention time of 968 s.
With `COC(=O)COC(=O)c1cn(-c2cccc(OC)c2)c(=O)c2ccccc12`, the RP-LC retention time was 924 s.
`O=C(NCCC1=CCCCC1)c1c(OCC2CC2)cc(=O)n2c1CCCCC2`: the RP-LC retention time amounted to 887 s.
Turning to `COc1ccc(OC)c(S(=O)(=O)Nc2ccc3c(c2)CCC(=O)N3C)c1`, the RP-LC retention time came out at 675 s.
In turn, `COc1ccc(NC(=O)Cn2ncc3c(N4CCN(c5ccccn5)CC4)ncnc32)cc1` returned an RP-LC retention time of 596 s.
Compound `CCCCn1cc(S(=O)(=O)Nc2ccc(CC)cc2)c2cccnc21` displayed an RP-LC retention time of 1040 s.
`CC(NC(=O)c1c(O)c2sccc2[nH]c1=O)c1ccncc1` (centres undefined): the RP-LC retention time was found to be 564 s.
On to `CN(C)CCn1nnc2cc(-c3noc(-c4cccc(C#N)c4)n3)ccc21`, for which the RP-LC retention time came to 633 s.
`CN1C(=O)c2cc(C(=O)NCc3ccc(F)cc3)nn2CC1(C)C(=O)NCc1ccc(F)cc1` (centres undefined) returned an RP-LC retention time of 760 s.
`COc1cc(NC(=O)c2nnn(-c3cc(OC)cc(OC)c3)c2C)cc(OC)c1` displayed an RP-LC retention time of 1050 s.
Turning to `CN1CCCn2cc(S(=O)(=O)Nc3cc(F)cc(F)c3)cc2C1=O`, the RP-LC retention time amounted to 718 s.
In the case of `Cc1occc1C(=O)N1CCCn2ccnc2C1C(C)C` (centres undefined), the RP-LC retention time worked out at 574 s.
Compound `CSCCC(NS(=O)(=O)c1ccc(Oc2ccccc2C)cc1)C(=O)O` (centres undefined) showed an RP-LC retention time of 852 s.
In the case of `Cc1ccc(-c2nnc(-c3ccc(-n4ccnc4)nc3)o2)cc1F`, the RP-LC retention time was determined as 716 s.
`O=C(Cc1ccccc1Cl)N1CCc2cc(-c3ccno3)ccc21` yielded an RP-LC retention time of 1020 s.
Compound `CCOc1nc2ccccc2nc1N1CCCC(C(=O)Nc2cccc(C(F)(F)F)c2)C1` (centres undefined) returned an RP-LC retention time of 1370 s.
With `Cc1ccc(NS(=O)(=O)c2n[nH]c(C)c2C(=O)NCCc2cccs2)cc1` the figure was 912 s; with `COC(=O)c1onc(C(=O)c2ccccc2)c1C(=O)OC`, 931 s.
Take `CCn1ccc(C(=O)N2C[C@@H]3CCCN4CCC[C@@H]([C@H]34)[C@H]2CCCC(=O)N2CCOCC2)n1`: the RP-LC retention time was found to be 580 s.
`Cc1sc2ccn(Cc3ccc(F)cc3)c(=O)c2c1C(=O)NC1CCCC1` displayed an RP-LC retention time of 919 s.
Compound `CCN(CC)C(=O)c1ccc(-c2nc3cc(NS(=O)(=O)c4cccs4)ccc3n2C)cc1` registered an RP-LC retention time of 679 s.
For `CC(=O)c1ccc(NC(=O)c2cnn(-c3ccc(Br)cc3)c2)cc1` the value was 948 s; for `Cc1cc(C)n(Cc2nc(-c3ccc(NC(=O)c4ccc5c(c4)OCO5)cc3)oc2C)n1`, 888 s.
With `CCn1cc(S(=O)(=O)N2CCCN(S(=O)(=O)c3ccccc3)CCC(=O)NCC2)cn1` the figure was 702 s; with `CCn1c(CCNC(=O)c2cccc(F)c2)nc2cccnc21`, 616 s.
As for `O=c1[nH]c2ccc(NCc3ccccc3)cc2[nH]1`, the RP-LC retention time amounted to 571 s.
In the case of `O=C(NCc1cccs1)C1CCN(C(=O)c2ncn3c2COC(c2ccc(F)cc2)C3)CC1` (centres undefined), the RP-LC retention time was determined as 736 s.
`COc1ccc(-n2ccc(=O)c(-c3nc(-c4ccccc4Cl)no3)n2)cc1` came in with an RP-LC retention time of 877 s.
The compound `CCC(NC(=O)C1CCN(c2cncnc2N2CCOCC2)CC1)c1ccc(OC)cc1` (centres undefined) displayed an RP-LC retention time of 643 s.
In the case of `CCOc1ccccc1-c1noc(-c2nnn3c2COC(c2ccc(OC)cc2)C3)n1` (centres undefined), the RP-LC retention time was 1080 s.
Compound `O=c1[nH]cc(S(=O)(=O)NC2CC3CCC2C3)c(=O)[nH]1` (centres undefined) displayed an RP-LC retention time of 637 s.
In turn, `O=C(NC1CCCCC1)C1CCN(Cc2cc3ccccc3n2Cc2ccccc2Cl)CC1` had an RP-LC retention time of 847 s.
As to `C[C@H](NCc1ccc(OCc2cccc(F)c2)cc1)C(N)=O`, the RP-LC retention time is 708 s.
